Reference: patent US20250171460A1, “INDUCERS OF KLF2 AND METHODS OF USE THEREOF” (Riparian Pharmaceuticals, Inc., priority 2022, published 2025)
Read-outs that look alike come from different tables or passages of the source.

Tested on: primary human endothelial cells expressing luciferase under the control of the KLF2 promoter
Assay: KLF2 Induction Cell Based Bioassay (luciferase reporter)
Description: In endothelial cell culture media, a stock of the highest working concentration was made at no more than 1% DMSO vehicle. The working stock was then serially diluted 1:2 to make an 11-point concentration response curve. Included in the 96-well plate were 2 reference compounds with known potencies. A DMSO column was included in the 96-well plate at the highest percent vehicle of the working stocks. The 96-well cell culture plate of primary human endothelial cells expressing luciferase under the control of the KLF2 promoter was dosed with 200 μL per well of the dilution series as well as the DMSO control column. The assay plate was incubated at 37° C. for 24 hours. The supernatant was collected at 24 hours.
20 μL of the supernatant was then placed in a 384-well plate with optical duplicates. The corners of the plate received 20 μL of the Gaussia Luciferase Enzyme positive control, as well as 20 μL of the 50 μM Coelenterizine substrate. The plate read is then calibrated using the control, and read using a Molecular Devices SpectraMax iD5, providing luminescence in relative light units (RLU). The plate reader injected 20 μL of the 50 μM Coelenterizine substrate immediately before taking the RLU measurement for each well.
The sample signals were then normalized to the average signal of the DMSO column, as well as to the maximum signal of one of the reference compounds, as shown in the equations below: […]
The EC50 of each compound is then defined as when the concentration response curve passes 0.5.

[1] = Homo sapiens, Endothelial cell, 24 h, KLF2 promoter luciferase, 24 hours, 11-point concentration response, read-out: Activity Range (EC50)
[2] = Homo sapiens, Endothelial cell, Bioactivity of stereoisomers: R isomer, read-out: Bioactivity Bucket, R

## COc1cccnc1CNC(=O)[C@@]1(C)COc2c(oc3ccc(F)cc23)C(=O)N1Cc1cn(CCO)nn1 [Example 120, (R)-9-fluoro-4-((1-(2-hydroxyethyl)-1H-1,2,3-triazol-4-yl)methyl)-N-((3-methoxypyridin-2-yl)methyl)-3-methyl-5-oxo-2,3,4,5-tetrahydrobenzofuro[2,3-f][1,4]oxazepine-3-carboxamide]
[1]
  EC50: 51 to 500 nM

## COCCN1C(=O)c2oc3cc(C(=O)NC4CCC4)ccc3c2OCC1(C)C(=O)NCc1cc(F)ccc1OC (stereo not drawn) [Example 75]
[1]
  EC50: 51 to 500 nM

## COc1ccc(F)c(F)c1CNC(=O)C1(C)COc2c(oc3cc(C(=O)NC4CCC4)ccc23)C(=O)N1[C@H]1C[C@@H](OC)C1 (stereo partly drawn) [Example 82]
[1]
  EC50: 51 to 500 nM

## COc1ccccc1CNC(=O)C1(C)COc2c(oc3cc(C(=O)NC4(C)COC4)cnc23)C(=O)N1CC(=O)N(C)C (stereo not drawn) [Example 121, 4-(2-(dimethylamino)-2-oxoethyl)-N3-(2-methoxybenzyl)-3-methyl-N8-(3-methyloxetan-3-yl)-5-oxo-2,3,4,5-tetrahydropyrido[2′,3′:4,5]furo[2,3-f][1,4]oxazepine-3,8-dicarboxamide]
[1]
  EC50: 51 to 500 nM

## COc1cccc(F)c1CNC(=O)C1(C)COc2c(oc3ccc(Cl)cc23)C(=O)N1Cc1ncnn1C (stereo not drawn) [Example 108, 9-chloro-N-(2-fluoro-6-methoxybenzyl)-3-methyl-4-((1-methyl-11H-1,2,4-triazol-5-yl)methyl)-5-oxo-2,3,4,5-tetrahydrobenzofuro[2,3-f][1,4]oxazepine-3-carboxamide]
KLF2 promoter luciferase, 24 hours, 11-point concentration response, read-out: Activity Range (EC50)
  EC50: 51 to 500 nM

## COc1ccc(F)c(F)c1CNC(=O)C1(C)COc2c(oc3cc(C(=O)NC4CCC4)ccc23)C(=O)N1CC1CC1 (stereo not drawn) [Example 58]
[1]
  EC50: 51 to 500 nM

## COc1cccc(F)c1CNC(=O)[C@@]1(C)COc2c(oc3ccc(F)cc23)C(=O)N1Cc1nnn(CCO)n1 [Example 118]
[1]
  EC50: 51 to 500 nM

## COc1cccnc1CNC(=O)[C@@]1(C)COc2c(oc3ccc(Cl)cc23)C(=O)N1CC(=O)N1CC(O)C1 [Example 104]
[1]
  EC50: 51 to 500 nM

## COCCN1C(=O)c2oc3ccccc3c2OCC1(C)C(=O)NCc1cc(C)ccc1OC (stereo not drawn) [Example 34]
[1]
  EC50: 501 to 5000 nM

## COc1cccc(Cl)c1CNC(=O)C1(C)COc2c(oc3cc(C(=O)NC4(C)COC4)ccc23)C(=O)N1CC1CC1 (stereo not drawn) [Example 86]
[1]
  EC50: ≤ 50 nM

## COc1ccc(F)c(F)c1CNC(=O)C1(C)COc2c(oc3cc(C(=O)NC4(C)COC4)ccc23)C(=O)N1[C@H]1C[C@@H](OC)C1 (stereo partly drawn) [Example 83]
[1]
  EC50: 51 to 500 nM

## COCCN1C(=O)c2oc3cc(C(=O)NC4(C)COC4)ccc3c2OCC1(C)C(=O)NCc1c(OC)ccc(F)c1F (stereo not drawn) [Example 63]
[1]
  EC50: 51 to 500 nM

## COc1cccc(F)c1CNC(=O)[C@@]1(C)COc2c(oc3ccc(F)cc23)C(=O)N1CC(=O)N1CC[C@H]1CO [Example 117]
[1]
  EC50: 51 to 500 nM

## COc1cccc(F)c1CNC(=O)C1(C)COc2c(oc3ccc(C(F)(F)F)cc23)C(=O)N1CC(=O)N(C)C (stereo not drawn) [Example 131, 4-(2-(dimethylamino)-2-oxoethyl)-N-(2-fluoro-6-methoxybenzyl)-3-methyl-5-oxo-9-(trifluoromethyl)-2,3,4,5-tetrahydrobenzofuro[2,3-f][1,4]oxazepine-3-carboxamide]
[1]
  EC50: 51 to 500 nM

## COc1cccc(C#N)c1CNC(=O)C1(C)COc2c(oc3cc(C(=O)NC4CCC4)ccc23)C(=O)N1[C@H]1C[C@@H](OC)C1 (stereo partly drawn) [Example 56]
[1]
  EC50: 51 to 500 nM

## COCCN1C(=O)c2oc3cc(C(=O)NC4(C)COC4)ccc3c2OCC1(C)C(=O)NCc1ncccc1OC (stereo not drawn) [Example 66]
[1]
  EC50: 501 to 5000 nM

## COc1cc(F)ccc1CNC(=O)C1(C)COc2c(oc3cc(C(=O)NC4(C)COC4)ccc23)C(=O)N1[C@H]1C[C@@H](OC)C1 (stereo partly drawn) [Example 69]
[1]
  EC50: 51 to 500 nM

## COCCN1C(=O)c2oc3ccccc3c2OCC1(C)C(=O)NCc1c(OC)ccc(F)c1F (stereo not drawn) [Example 21]
[1]
  EC50: 501 to 5000 nM

## COc1ccc(F)cc1CNC(=O)C1(C)COc2c(oc3cc(C(=O)NC4CCC4)ccc23)C(=O)N1[C@H]1C[C@@H](OC)C1 (stereo partly drawn) [Example 73]
[1]
  EC50: 51 to 500 nM

## COCCN1C(=O)c2oc3ccccc3c2OCC1(C)C(=O)NCc1cc(Cl)c(F)cc1OC (stereo not drawn) [Example 29]
[1]
  EC50: 501 to 5000 nM

## COCCN1C(=O)c2oc3ccccc3c2OCC1(C)C(=O)NCc1c(F)cc(F)cc1OC (stereo not drawn) [Example 22]
[1]
  EC50: 501 to 5000 nM

## COCCN1C(=O)c2oc3cc(C)ccc3c2OCC1(C)C(=O)NCc1ccccc1OC (stereo not drawn) [Example 95, N-(2-methoxybenzyl)-4-(2-methoxyethyl)-3,8-dimethyl-5-oxo-2,3,4,5-tetrahydrobenzofuro[2,3-f][1,4]oxazepine-3-carboxamide]
[1]
  EC50: 501 to 5000 nM

## COCCN1C(=O)c2oc3cc(C(=O)NC4(C)COC4)cnc3c2OCC1(C)C(=O)NCc1ccccc1OC (stereo not drawn) [Example 122]
[1]
  EC50: 51 to 500 nM

## COc1ccccc1CNC(=O)C1(C)COc2c(oc3ccccc23)C(=O)N1CC(C)(C)OC (stereo not drawn) [Example 3]
[1]
  EC50: 51 to 500 nM

## COCCN1C(=O)c2oc3ccccc3c2OCC1(C)C(=O)NCc1c(OC)ccc(Cl)c1F (stereo not drawn) [Example 46]
[1]
  EC50: 501 to 5000 nM

## COCCN1C(=O)c2oc3ccccc3c2OCC1(C)C(=O)NCc1c(OC)ccc2cccnc12 (stereo not drawn) [Example 20]
[1]
  EC50: 501 to 5000 nM

## COCCN1C(=O)c2oc3ccccc3c2OCC1(C)C(=O)NCc1c(OC)cccc1C(=O)OC (stereo not drawn) [Example 27]
[1]
  EC50: 501 to 5000 nM

## COCCN1C(=O)c2oc3ccccc3c2OCC1(C)C(=O)NCc1c(F)cccc1OC (stereo not drawn) [Example 37]
[1]
  EC50: 501 to 5000 nM

## COCCN1C(=O)c2oc3ccccc3c2OCC1(C)C(=O)NCc1cc(Cl)ccc1OC (stereo not drawn) [Example 23]
[1]
  EC50: 501 to 5000 nM

## COc1cccnc1CNC(=O)C1(C)COc2c(oc3cc(C(=O)NC4CCC4)ccc23)C(=O)N1CC1CC1 (stereo not drawn) [Example 53]
[1]
  EC50: 51 to 500 nM

## COCCN1C(=O)c2oc3ccccc3c2OCC1(C)C(=O)NCc1ccc(Cl)cc1OC (stereo not drawn) [Example 25]
[1]
  EC50: 501 to 5000 nM

## C#CCCN1C(=O)c2oc3ccccc3c2OC[C@@]1(C)C(=O)NCc1ccccc1OC [Example 138]
Bioactivity of stereoisomers: S isomer
  Bioactivity Bucket, S: inactive

## COCCN1C(=O)c2oc3cc(C(=O)NC4(C)COC4)ccc3c2OCC1(C)C(=O)NCc1cc(F)ccc1OC (stereo not drawn) [Example 74]
[1]
  EC50: 501 to 5000 nM

## COCCN1C(=O)c2oc3ccccc3c2OCC1(C)C(=O)NCc1ccc(C)cc1OC (stereo not drawn) [Example 43]
[1]
  EC50: 501 to 5000 nM

## COc1cccc(F)c1CNC(=O)C1(C)COc2c(oc3cc(C(=O)NC4(C)COC4)ccc23)C(=O)N1[C@H]1C[C@@H](OC)C1 (stereo partly drawn) [Example 68]
[1]
  EC50: 51 to 500 nM

## COCCN1C(=O)c2oc3ccccc3c2OCC1(C)C(=O)NCc1c(OC)ccc2ccncc12 (stereo not drawn) [Example 30]
[1]
  EC50: 501 to 5000 nM

## COCCN1C(=O)c2oc3ccccc3c2OCC1(C)C(=O)NCc1cc(OC)ccc1OC (stereo not drawn) [Example 35]
[1]
  EC50: 501 to 5000 nM

## COCCN1C(=O)c2oc3cc(C(=O)NC4(C)COC4)cnc3c2OCC1(C)C(=O)NCc1c(Cl)cccc1OC (stereo not drawn) [Example 123]
[1]
  EC50: 51 to 500 nM

## COCCN1C(=O)c2oc3cc(-c4nccs4)ccc3c2OCC1(C)C(=O)NCc1ccccc1OC (stereo not drawn) [Example 101]
[1]
  EC50: 51 to 500 nM

## COCCN1C(=O)c2oc3cc(C(=O)NC4CCC4)ccc3c2OCC1(C)C(=O)NCc1ccc(F)cc1OC (stereo not drawn) [Example 77]
[1]
  EC50: 51 to 500 nM

## COCCN1C(=O)c2oc3cc(-c4cscn4)ccc3c2OCC1(C)C(=O)NCc1ccccc1OC (stereo not drawn) [Example 99]
[1]
  EC50: 501 to 5000 nM

## C#CCCN1C(=O)c2oc3ccccc3c2OC[C@]1(C)C(=O)NCc1ccccc1OC [Example 6]
[1]
  EC50: 501 to 5000 nM
[2]
  EC50: 501 to 5000 nM

## COc1cccc(F)c1CNC(=O)[C@@]1(C)COc2c(oc3ccc(Cl)cc23)C(=O)N1CC(=O)N(C)C (single isomer, unassigned) [Example 107]
[1]
  EC50: 51 to 500 nM
[2]
  EC50: 51 to 500 nM
